This is an account of results in patent US20140288044A1, “COMPOSITIONS AND THERAPEUTIC USES OF IKK-RELATED KINASE EPSILON AND TANKBINDING KINASE 1 INHIBITORS” (Alzheimer's Institute of America, Inc., priority 2011, published 2014).

One may read the pIC50 as −log10 of the IC50, conventionally taken in molar units.

pIC50: −log10 of the molar value. Like-named read-outs stand apart in the source and are kept apart here.

The test system of assay [1] is IKKε-mediated phosphorylation of IRF3. Put plainly: ELISA for in-situ phosphorylation of IRF3 (phospho-Ser396) in HEK293T cells cotransfected with IRF3 and IKKε. The format is cell-based. To be noted: Homo sapiens, HEK-293T, 20 h, HEK293T cells, 20 hours, read-out: IC50, in-situ IKKε-mediated phosphorylation of IRF3. In short, it runs like this:
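HEK293T cells cotransfected with IRF3 and IKKε were treated with compound for 20 h, and lysates were assayed by ELISA for phospho-Ser396 IRF3, normalized to DMSO. Viability was checked in parallel by CellTiter-Glo. For TBK1, cells cotransfected with IRF7 and TBK1 were treated overnight and probed by Western blot for phospho-Ser477/Ser479 IRF7.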
(An ELISA detects its analyte on a solid surface through an enzyme-linked reagent.)

Another assay has as its target T1, IKKε (Homo sapiens, UniProt Q14164).
T1 construct: His-tag (in-house Sf9 preparation) or GST-tag (purchased Invitrogen preparation); these are alternatives, not both on one protein; host or cells: Sf9 cells
T1 sequence (Q14164 1-716): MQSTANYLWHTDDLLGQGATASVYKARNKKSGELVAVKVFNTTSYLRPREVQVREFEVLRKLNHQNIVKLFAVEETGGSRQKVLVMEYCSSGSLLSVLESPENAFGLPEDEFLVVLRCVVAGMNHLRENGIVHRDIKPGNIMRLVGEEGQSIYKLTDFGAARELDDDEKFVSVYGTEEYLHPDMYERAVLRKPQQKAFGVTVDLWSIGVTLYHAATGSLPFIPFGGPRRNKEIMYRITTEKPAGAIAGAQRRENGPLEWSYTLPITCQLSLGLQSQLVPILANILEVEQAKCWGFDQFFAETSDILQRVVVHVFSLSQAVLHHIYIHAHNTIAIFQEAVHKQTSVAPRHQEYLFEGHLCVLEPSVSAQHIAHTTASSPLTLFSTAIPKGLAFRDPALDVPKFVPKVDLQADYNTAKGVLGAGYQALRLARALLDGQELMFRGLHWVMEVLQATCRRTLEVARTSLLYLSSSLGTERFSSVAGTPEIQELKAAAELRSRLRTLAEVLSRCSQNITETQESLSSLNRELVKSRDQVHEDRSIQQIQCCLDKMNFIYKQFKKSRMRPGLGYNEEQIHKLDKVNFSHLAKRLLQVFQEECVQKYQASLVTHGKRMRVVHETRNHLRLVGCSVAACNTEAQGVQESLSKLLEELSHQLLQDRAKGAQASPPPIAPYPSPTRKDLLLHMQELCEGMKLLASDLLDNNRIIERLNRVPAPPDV
As to the kind of experiment: In-vitro IKKε kinase assay (radiolabelled ATP, filterplate). The format is biochemical. The procedure, abridged:
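His-tagged IKKε from Sf9 cells or GST-tagged IKKε, with myelin basic protein, casein or dephosphorylated casein as substrate and 32 μM ATP (2× Km) plus [γ^33]ATP. "Normal" assay used 0.1 μg/ml enzyme; "sensitized" used 0.015 μg/ml with dephosphorylated casein only. Stopped after 30–45 min with phosphoric acid; P-81 filter counts normalized to DMSO after background subtraction.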

The mark [2] stands for this setting: "sensitized" assay, read-out: IC50, inhibition of the kinase activity of IKKε.
Where [3] appears, read: in-vitro IKKε kinase inhibition assays, given as 0.005 μM (5 nM), read-out: IKKε kinase inhibitory activity (IC50 value).
The mark [4] stands for this setting: range given from about 1 μM to about 250 nM.

Take `COC1CN(C(=O)c2ncc(Nc3nccc(-c4ccc(OC5CCOCC5)c(C#N)c4)n3)n2C)C1` [Example Compound 102, 5-[2-({2-[(3-Methoxyazetidin-1-yl)carbonyl]-1-methyl-1H-imidazol-5-yl}amino)pyrimidin-4-yl]-2-(tetrahydro-2H-pyran-4-yloxy)benzonitrile]: the pIC50 in assay [1] was 6.60 to 7.00; on IKKε (setting [2]), over 8.30; on IKKε (setting [3]), over 8.30.

As for `CC(C)COc1ccc(-c2ccnc(Nc3ccc(N(C)CCO)nc3)n2)cc1C#N` [Example Compound 109, 5-[2-({6-[(2-Hydroxyethyl)(methyl)amino]pyridin-3-yl}amino)pyrimidin-4-yl]-2-(2-methylpropoxy)benzonitrile], the pIC50 is 6.60 to 7.00 in assay [1], over 8.30 at IKKε (setting [2]) and over 8.30 on IKKε (setting [3]).

Regarding `CCN(CC)c1ccc(Nc2nccc(-c3ccc(O[C@@H]4CCN(C(=O)CO)C4)c(C#N)c3)n2)cn1` [Example Compound 117, 5-(2-{[6-(Diethylamino)pyridin-3-yl]amino}pyrimidin-4-yl)-2-{[(3R)-1-(hydroxyacetyl)pyrrolidin-3-yl]oxy}benzonitrile], the results for the pIC50 (in assay [1] (setting [4]); on IKKε (setting [2]); on IKKε (setting [3])) were 6.00 to 6.60, over 8.30 and over 8.30, respectively.

For the compound `N#Cc1cc(-c2ccnc(Nc3ccc(N4CCOCC4)nc3)n2)ccc1O[C@@H]1CCN(C(=O)CO)C1` [Example Compound 119, 2-{[(3R)-1-(Hydroxyacetyl)pyrrolidin-3-yl]oxy}-5-(2-{[6-(morpholin-4-yl)pyridin-3-yl]amino}pyrimidin-4-yl)benzonitrile], the results for the pIC50 (in assay [1]; at IKKε (setting [2]); at IKKε (setting [3])) were 6.60 to 7.00, over 8.30 and over 8.30, respectively.

As to `Cc1cc(Nc2nccc(-c3ccc(O[C@@H]4CCN(C(=O)CO)C4)c(C#N)c3)n2)ccn1` [Example Compound 123, 2-{[(3R)-1-(Hydroxyacetyl)pyrrolidin-3-yl]oxy}-5-{2-[(2-methylpyridin-4-yl)amino]pyrimidin-4-yl}benzonitrile], the results for the pIC50 (in assay [1] (setting [4]); on IKKε (setting [3])) were 6.00 to 6.60 and over 8.30, respectively.

On to `Cn1cc(-c2cc(Nc3nccc(-c4ccc(O[C@@H]5CCN(C(=O)CO)C5)c(C#N)c4)n3)ccn2)cn1` [Example Compound 126, 2-{[(3R)-1-(Hydroxyacetyl)pyrrolidin-3-yl]oxy}-5-(2-{[2-(1-methyl-1H-pyrazol-4-yl)pyridin-4-yl]amino}pyrimidin-4-yl)benzonitrile], for which the pIC50 in assay [1] is 5.30 to 6.00; at IKKε (setting [3]) it was over 8.30.

Regarding `Cc1ccc(Nc2nccc(-c3ccc(OC4CCN(C(=O)[C@H](C)O)CC4)c(C#N)c3)n2)cn1` [Example Compound 128, 2-({1-[(2S)-2-Hydroxypropanoyl]piperidin-4-yl}oxy)-5-{2-[(6-methylpyridin-3-yl)amino]pyrimidin-4-yl}benzonitrile], the pIC50 in assay [1] was 5.30 to 6.00; on IKKε (setting [2]), over 8.30; on IKKε (setting [3]), over 8.30.

`Cc1ccc(Nc2nccc(-c3ccc(OC4CCN(C(=O)CO)CC4)c(C#N)c3)n2)cn1` [Example Compound 130, 2-{[1-(Hydroxyacetyl)piperidin-4-yl]oxy}-5-{2-[(6-methylpyridin-3-yl)amino]pyrimidin-4-yl}benzonitrile]: the pIC50 was 5.30 to 6.00 in assay [1] and over 8.30 at IKKε (setting [3]).

For the compound `COc1cc(Nc2nccc(-c3ccc(OC4CCN(C(=O)CO)CC4)c(C#N)c3)n2)ccn1` [Example Compound 131, 2-{[1-(Hydroxyacetyl)piperidin-4-yl]oxy}-5-{2-[(2-methoxypyridin-4-yl)amino]pyrimidin-4-yl}benzonitrile], the pIC50 was 6.60 to 7.00 in assay [1] and over 8.30 on IKKε (setting [3]).

For the compound `CN(C)c1ccc(Nc2nccc(-c3ccc(NC(=O)C4CC4)c(C#N)c3)n2)cn1` [Example Compound 138, N-[2-Cyano-4-(2-{[6-(dimethylamino)pyridin-3-yl]amino}pyrimidin-4-yl)phenyl]cyclopropanecarboxamide], the results for the pIC50 (in assay [1]; at IKKε (setting [2]); at IKKε (setting [3])) were over 7.00, over 8.30 and over 8.30, respectively.

As for `CCN(CC)c1ccc(Nc2nccc(-c3ccc(NC(=O)C4CC4)c(C#N)c3)n2)cn1` [Example Compound 139, N-[2-Cyano-4-(2-{[6-(diethylamino)pyridin-3-yl]amino}pyrimidin-4-yl)phenyl]cyclopropanecarboxamide], the pIC50 in assay [1] (setting [4]) is 6.00 to 6.60; at IKKε (setting [2]), over 8.30; at IKKε (setting [3]), over 8.30.

Consider `N#Cc1cc(-c2ccnc(Nc3ccnc(N4CCN(CCO)CC4)c3)n2)ccc1NC(=O)C1CC1` [Example Compound 143, N-{2-Cyano-4-[2-({2-[4-(2-hydroxyethyl)piperazin-1-yl]pyridin-4-yl}amino)pyrimidin-4-yl]phenyl}cyclopropanecarboxamide], for which the pIC50 in assay [1] is over 7.00; on IKKε (setting [2]), over 8.30; at IKKε (setting [3]), over 8.30.

For the compound `N#Cc1cc(-c2ccnc(Nc3cncc(C(=O)NCCO)c3)n2)ccc1OC1CCOCC1` [Example Compound 175, 5-({4-[3-Cyano-4-(tetrahydro-2H-pyran-4-yloxy)phenyl]pyrimidin-2-yl}amino)-N-(2-hydroxyethyl)pyridine-3-carboxamide], the pIC50 is 5.30 to 6.00 in assay [1] and over 8.30 at IKKε (setting [2]).

As for `COCCNCc1cncc(Nc2nccc(-c3ccc(OC4CCOCC4)c(C#N)c3)n2)c1` [Example Compound 184, 5-{2-[(5-{[(2-Methoxyethyl)amino]methyl}pyridin-3-yl)amino]pyrimidin-4-yl}-2-(tetrahydro-2H-pyran-4-yloxy)benzonitrile], the pIC50 in assay [1] was 6.60 to 7.00; on IKKε (setting [2]), over 8.30.

On to `N#Cc1cc(-c2ccnc(Nc3cncc(CN4CCOCC4)c3)n2)ccc1OC1CCOCC1` [Example Compound 185, 5-(2-{[5-(Morpholin-4-ylmethyl)pyridin-3-yl]amino}pyrimidin-4-yl)-2-(tetrahydro-2H-pyran-4-yloxy)benzonitrile], for which the values for the pIC50 (in assay [1] (setting [4]); at IKKε (setting [2])) were 6.00 to 6.60 and over 8.30, respectively.

Consider `COCCNc1cc(Nc2nccc(-c3ccc(OC4CCOCC4)c(C#N)c3)n2)ccn1` [Example Compound 193, 5-[2-({2-[(2-Methoxyethyl)amino]pyridin-4-yl}amino)pyrimidin-4-yl]-2-(tetrahydro-2H-pyran-4-yloxy)benzonitrile], for which the pIC50 in assay [1] was over 7.00; on IKKε (setting [2]) it was over 8.30.

With `CN(Cc1ccc(Nc2nccc(-c3ccc(OC4CCOCC4)c(C#N)c3)n2)cn1)C(=O)C(C)(C)O` [Example Compound 205, N-{[5-({4-[3-Cyano-4-(tetrahydro-2H-pyran-4-yloxy)phenyl]pyrimidin-2-yl}amino)pyridin-2-yl]methyl}-2-hydroxy-N,2-dimethylpropanamide], the pIC50 in assay [1] is over 7.00; on IKKε (setting [2]), over 8.30.

On to `CN(Cc1ccc(Nc2nccc(-c3ccc(OC4CCOCC4)c(C#N)c3)n2)cn1)S(C)(=O)=O` [Example Compound 206, N-{[5-({4-[3-Cyano-4-(tetrahydro-2H-pyran-4-yloxy)phenyl]pyrimidin-2-yl}amino)pyridin-2-yl]methyl}-N-methylmethanesulfonamide], for which the pIC50 in assay [1] is over 7.00; on IKKε (setting [2]) it was over 8.30.

On to `CN(CCS(C)(=O)=O)Cc1ccc(Nc2nccc(-c3ccc(OC4CCOCC4)c(C#N)c3)n2)cn1` [Example Compound 207, 5-(2-{[6-({Methyl[2-(methylsulfonyl)ethyl]amino}methyl)pyridin-3-yl]amino}pyrimidin-4-yl)-2-(tetrahydro-2H-pyran-4-yloxy)benzonitrile], for which the figures for the pIC50 (in assay [1] (setting [4]); at IKKε (setting [2])) were 6.00 to 6.60 and over 8.30, respectively.

Take `CC(=O)c1ccc(Nc2nccc(-c3ccc(OC4CCOCC4)c(C#N)c3)n2)cn1` [Example Compound 212, 5-{2-[(6-Acetylpyridin-3-yl)amino]pyrimidin-4-yl}-2-(tetrahydro-2H-pyran-4-yloxy)benzonitrile]: the pIC50 is over 7.00 in assay [1] and over 8.30 on IKKε (setting [2]).

On to `N#Cc1cc(-c2ccnc(Nc3ccc(N4CC(O)C4)nc3)n2)ccc1OC1CCOCC1` [Example Compound 215, 5-(2-{[6-(3-Hydroxyazetidin-1-yl)pyridin-3-yl]amino}pyrimidin-4-yl)-2-(tetrahydro-2H-pyran-4-yloxy)benzonitrile], for which the pIC50 is over 7.00 in assay [1] and over 8.30 at IKKε (setting [2]).
